Reference: patent US12581252B2, “Substituted pyrrolo[3,4-b]pyridines as PI3K-α inhibitors” (Relay Therapeutics, Inc., priority 2020, dated 2026)

Target: H1047R PIK3CA enzyme (Homo sapiens, UniProt P42336, H1047R)
Assay: ADP-Glo Biochemical PIK3CA Kinase Assay

Sequence of H1047R PIK3CA enzyme (P42336 whole entry H1047R): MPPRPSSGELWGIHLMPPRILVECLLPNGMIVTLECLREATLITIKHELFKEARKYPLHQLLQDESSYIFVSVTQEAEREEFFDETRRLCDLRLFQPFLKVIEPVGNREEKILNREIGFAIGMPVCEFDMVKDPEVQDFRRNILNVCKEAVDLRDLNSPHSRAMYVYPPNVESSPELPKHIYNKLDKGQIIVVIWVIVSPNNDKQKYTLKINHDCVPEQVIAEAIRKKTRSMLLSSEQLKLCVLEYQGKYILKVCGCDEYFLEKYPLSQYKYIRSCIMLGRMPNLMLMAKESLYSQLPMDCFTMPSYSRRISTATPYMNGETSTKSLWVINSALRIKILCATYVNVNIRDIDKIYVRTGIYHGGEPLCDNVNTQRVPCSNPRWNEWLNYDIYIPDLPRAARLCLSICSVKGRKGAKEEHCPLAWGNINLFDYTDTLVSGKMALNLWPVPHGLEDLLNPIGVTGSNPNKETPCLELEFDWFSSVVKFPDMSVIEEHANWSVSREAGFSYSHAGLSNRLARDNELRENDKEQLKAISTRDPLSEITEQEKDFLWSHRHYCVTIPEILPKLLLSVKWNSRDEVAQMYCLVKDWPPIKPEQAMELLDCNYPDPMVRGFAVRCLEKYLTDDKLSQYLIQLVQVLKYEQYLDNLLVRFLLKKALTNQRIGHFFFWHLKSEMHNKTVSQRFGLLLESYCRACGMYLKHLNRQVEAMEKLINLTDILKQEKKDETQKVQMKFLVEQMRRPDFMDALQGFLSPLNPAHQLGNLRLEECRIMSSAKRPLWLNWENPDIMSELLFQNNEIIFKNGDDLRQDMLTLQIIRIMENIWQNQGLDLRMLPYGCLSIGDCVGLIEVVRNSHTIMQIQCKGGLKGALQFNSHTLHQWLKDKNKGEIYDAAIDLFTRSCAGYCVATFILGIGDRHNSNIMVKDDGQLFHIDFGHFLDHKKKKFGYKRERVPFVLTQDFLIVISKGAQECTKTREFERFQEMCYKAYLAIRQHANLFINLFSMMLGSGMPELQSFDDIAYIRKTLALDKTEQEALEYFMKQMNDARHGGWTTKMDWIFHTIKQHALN
Sequence of H1047R PIK3CA enzyme (P27986 whole entry partner): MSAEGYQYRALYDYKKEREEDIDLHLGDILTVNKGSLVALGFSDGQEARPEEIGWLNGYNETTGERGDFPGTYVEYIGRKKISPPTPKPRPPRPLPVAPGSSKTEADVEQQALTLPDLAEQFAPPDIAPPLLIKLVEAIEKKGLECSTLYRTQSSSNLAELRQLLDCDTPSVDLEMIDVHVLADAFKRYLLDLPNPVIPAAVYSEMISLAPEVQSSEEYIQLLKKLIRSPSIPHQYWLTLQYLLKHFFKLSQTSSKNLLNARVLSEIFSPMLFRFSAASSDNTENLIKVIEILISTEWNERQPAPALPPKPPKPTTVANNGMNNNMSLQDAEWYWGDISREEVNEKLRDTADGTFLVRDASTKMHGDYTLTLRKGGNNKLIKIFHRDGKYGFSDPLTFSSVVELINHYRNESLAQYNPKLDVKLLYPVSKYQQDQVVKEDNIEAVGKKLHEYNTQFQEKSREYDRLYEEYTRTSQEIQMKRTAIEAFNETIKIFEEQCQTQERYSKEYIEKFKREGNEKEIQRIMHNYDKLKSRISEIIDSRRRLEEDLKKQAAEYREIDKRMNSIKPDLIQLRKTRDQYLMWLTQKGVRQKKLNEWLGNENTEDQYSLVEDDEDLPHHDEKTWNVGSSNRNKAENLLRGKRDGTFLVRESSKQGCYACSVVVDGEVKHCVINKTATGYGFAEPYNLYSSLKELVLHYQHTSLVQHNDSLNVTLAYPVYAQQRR

IC50 [µM]	SMILES
10 to 100	CNC(=O)c1cc(-c2ccc3ncnn3c2)cc2c1C(c1cc(F)ccc1Cl)NC2=O (centres unmarked) [Compound I-1846]
10 to 100	C[S+]([O-])c1cc(-c2ccc3ncnn3c2)cc2c1C(c1cc(F)ccc1Cl)NC2=O (centres unmarked) [Compound I-1940]
10 to 100	O=C(Nc1cccc2c1C(C1CC1)NC2=O)c1cc(F)cc(C(F)(F)F)c1 (centres unmarked) [Compound I-259]
0.5 to 1	O=C1NC(c2cc(F)ccc2Cl)c2c(NC(=O)N3CCCC34CCCC4)cc(Br)cc21 (centres unmarked) [Compound I-2424]
≤ 0.1	O=C1COC(c2cc(NC(=O)c3cc(F)cc(C(F)(F)F)c3)c3c(c2)C(=O)NC3c2cc(F)ccc2Cl)CN1 (centres unmarked) [Compound I-1308]
≤ 0.1	O=C(Nc1cc(-c2ccn[nH]2)cc2c1C(c1cc(F)ccc1Cl)NC2=O)c1cc(F)cc(C(F)(F)F)c1 (centres unmarked) [Compound I-815]
10 to 100	O=C(Nc1cccc2c1C(CN1CCCCC1)NC2=O)c1cc(F)cc(C(F)(F)F)c1 (centres unmarked) [Compound I-1678]
1 to 10	CC(C)[C@@]1(O)CN(C(=O)Nc2cccc3c2[C@H](c2cc(F)ccc2Cl)NC3=O)c2ccc(F)cc21 (single isomer, unassigned) [Compound I-2452]
1 to 10	CC(=O)c1cc(F)cc(C(=O)Nc2cccc3c2C(c2cc(F)ccc2Cl)NC3=O)c1 (centres unmarked) [Compound I-581]
0.1 to 0.5	Cc1ccccc1C1NC(=O)c2c(Br)ccc(NC(=O)c3cc(F)cc(C(F)(F)F)c3)c21 (centres unmarked) [Compound I-279]
0.5 to 1	O=C(Nc1cc(-c2ccc3ncnn3c2)cc2c1[C@@H](c1cc(F)ccc1Cl)NC2=O)c1cc(F)cc(C(F)(F)F)c1 (single isomer, unassigned) [Compound I-943]
1 to 10	O=C1NC(c2ncccc2Cl)c2c(NC(=O)c3csc4ccccc34)cccc21 (centres unmarked) [Compound I-57]
0.1 to 0.5	CC12CC3CC(C)(C1)CC(C(=O)Nc1cccc4c1C(c1cc(F)ccc1Cl)NC4=O)(C3)C2 (centres unmarked) [Compound I-1074]
0.1 to 0.5	O=C(Nc1cc(C2CCO2)cc2c1C(c1cc(F)ccc1Cl)NC2=O)c1cc(F)cc(C(F)(F)F)c1 (racemic) [Compound I-662]
1 to 10	CN1C(=O)NC(c2cc(F)ccc2Cl)c2c(NC(=O)c3cc(F)cc(C(F)(F)F)c3)cccc21 (centres unmarked) [Compound I-1951]
≤ 0.1	O=C(Nc1cc(C#Cc2ccncc2)cc2c1C(c1cc(F)ccc1Cl)NC2=O)c1cc(F)cc(C(F)(F)F)c1 (centres unmarked) [Compound I-1224]
1 to 10	O=C1NC(c2cc(F)ccc2Cl)c2c(NC3CNCc4ccccc43)cc(-c3ccc4ncnn4c3)cc21 (centres unmarked) [Compound I-1959]
0.5 to 1	Cc1ccccc1C1NC(=O)c2c(C(=O)N3CC(C#N)C3)ccc(NC(=O)c3nsc4ccccc34)c21 (centres unmarked) [Compound I-219]
10 to 100	CC(O)C(CC(=O)Nc1cccc2c1C(c1cc(F)ccc1Cl)NC2=O)C(C)C(F)(F)F (centres unmarked) [Compound I-2198]
0.5 to 1	Cc1ccccc1-n1[nH]c(=O)c2cccc(NC(=O)c3csc4ccccc34)c21 [Compound I-68]
0.1 to 0.5	Cc1ccc(-c2cc(NC(=O)c3cc(F)cc(Cl)c3)c3c(n2)C(=O)NC3c2cc(F)ccc2Cl)cn1 (centres unmarked) [Compound I-497]
10 to 100	O=C(Nc1cccc2c1[C@@H](C13C[C@H]4C[C@@H](C1)C[C@@H](C3)C4)NC2=O)c1cc(F)cc(C(F)(F)F)c1 (racemic) [Compound I-2074]

IC50 [µM]	SMILES
0.1 to 0.5	O=C(Nc1cc(Br)cc2c1C(c1cc(F)ccc1Cl)NC2=O)c1cccc(C(F)(F)F)c1 (centres unmarked) [Compound I-801]
≤ 0.1	O=C(Nc1cc(-c2ccn3nc(C4CC4)nc3c2)cc2c1C(c1cc(F)ccc1Cl)NC2=O)c1cc(F)cc(C(F)(F)F)c1 (centres unmarked) [Compound I-1651]
1 to 10	COc1ccc([C@H](C)N2C(=O)c3cc(Br)cc(N)c3[C@H]2c2cc(F)ccc2Cl)cc1 (racemic) [Compound I-862]
1 to 10	N#Cc1cc2ncnn2cc1-c1cc(NC(=O)c2cc(F)cc(C(F)(F)F)c2)c2c(c1)C(=O)N[C@@H]2c1cc(F)ccc1Cl [Compound I-1645]
1 to 10	N#Cc1cc(NC(=O)N2C[C@@](O)(C(F)(F)F)c3cc(F)ccc32)c2c(c1)C(=O)N[C@H]2c1cc(F)ccc1Cl (single isomer, unassigned) [Compound I-2559]
10 to 100	O=C(Nc1cccc2c1C(CO)NC2=O)c1cc(F)cc(C(F)(F)F)c1 (centres unmarked) [Compound I-1666]
10 to 100	O=C1NC(c2cc(F)ccc2Cl)c2c(NC(=O)N3CCC3c3ccccc3)cccc21 (centres unmarked) [Compound I-2321]
≤ 0.1	O=C(Nc1cc(-c2ccc3nc(C(F)F)nn3c2)cc2c1C(c1cc(F)ccc1Cl)NC2=O)c1cc(F)cc(C(F)(F)F)c1 (centres unmarked) [Compound I-1938]
0.1 to 0.5	CC1(C)COC(Nc2cc(NC(=O)c3cc(F)cc(C(F)(F)F)c3)c3c(c2)C(=O)NC3c2cc(F)ccc2Cl)=N1 (centres unmarked) [Compound I-2358]
≤ 0.1	CNC(=O)c1cc(NC(=O)c2nsc3ccccc23)c2c(c1)C(=O)N[C@H]2c1ccccc1C [Compound I-163]
0.1 to 0.5	CC(=O)N1CCC[C@H](Oc2cc(NC(=O)c3cc(F)cc(C(F)(F)F)c3)c3c(c2)C(=O)NC3c2cc(F)ccc2Cl)C1 (single isomer, unassigned) [Compound I-1525]
≤ 0.1	O=C(Nc1cc(Br)c(Cl)c2c1C(c1cc(F)ccc1Cl)NC2=O)c1cc(F)cc(C(F)(F)F)c1 (centres unmarked) [Compound I-847]
0.1 to 0.5	CC1(C)CC(COc2cc(NC(=O)c3cc(F)cc(C(F)(F)F)c3)c3c(c2)C(=O)NC3c2cc(F)ccc2Cl)O1 (centres unmarked) [Compound I-873]
1 to 10	CNC1(c2cc(F)ccc2Cl)NC(=O)c2cc(C[S+](C)[O-])cc(NC(=O)c3cc(F)cc(C(F)(F)F)c3)c21 (centres unmarked) [Compound I-1138]
10 to 100	O=C(Nc1cccc2c1C(c1ccccc1C1COC1)NC2=O)c1cc(F)cc(C(F)(F)F)c1 (centres unmarked) [Compound I-907]
10 to 100	Cc1ccccc1C1NC(=O)c2cccc(NC(=O)c3cccc4c3CCCO4)c21 (centres unmarked) [Compound I-11]
10 to 100	CNc1cc(C2NC(=O)c3cccc(NC(=O)c4cc(F)cc(C(F)(F)F)c4)c32)ccn1 (centres unmarked) [Compound I-874]
1 to 10	Cc1cc2cccc(C(=O)Nc3cc(Br)cc4c3C(c3cc(F)ccc3Cl)NC4=O)c2o1 (centres unmarked) [Compound I-635]
10 to 100	CN1CCN(C(=O)Nc2cc(Br)cc3c2[C@@H](c2cc(F)ccc2Cl)NC3=O)CC1(C)C (single isomer, unassigned) [Compound I-2241]
≤ 0.1	Cn1nc(C(F)F)cc1-c1cc(NC(=O)c2cc(F)cc(C(F)(F)F)c2)c2c(c1)C(=O)N[C@H]2c1cc(F)ccc1Cl [Compound I-1881]
10 to 100	O=C(Nc1cc(Br)cc2c1C(c1cc(F)ccc1Cl)NC2=O)c1ccnc(C(F)(F)F)c1 (centres unmarked) [Compound I-523]
≤ 0.1	CS(=O)(=O)CCc1cc(NC(=O)c2cc(F)cc(C(F)(F)F)c2)c2c(c1)C(=O)NC2c1cc(F)ccc1Cl (centres unmarked) [Compound I-1476]

IC50 [µM]	SMILES
1 to 10	O=C1NC(c2cc(F)ccc2Cl)c2c(NC(=O)c3cc(F)cc4ccc(=O)[nH]c34)cc(Br)cc21 (centres unmarked) [Compound I-1424]
1 to 10	O=C1N[C@@H](c2cc(F)ccc2Cl)c2c(NC(=O)[C@H]3C[C@H](O)C[C@@H](C(F)(F)F)C3)cccc21 (single isomer, unassigned) [Compound I-2177]
1 to 10	COc1cc(F)cc(C(=O)Nc2cccc3c2C(c2ccccc2C)NC3=O)c1 (centres unmarked) [Compound I-340]
1 to 10	O=C1N[C@H](c2cc(F)ccc2Cl)c2c(NC(=O)N3C[C@H](O)c4cc(F)ccc43)cc(-n3cccn3)cc21 (single isomer, unassigned) [Compound I-2367]
1 to 10	O=C1NC(c2cc(F)ccc2Cl)c2c(NC(=O)c3cc(F)cc4c(Cl)n[nH]c34)cc(Br)cc21 (centres unmarked) [Compound I-1686]
10 to 100	CC(=O)Nc1cccc2c1C(c1cc(F)ccc1Cl)NC2=O (centres unmarked) [Compound I-1581]
≤ 0.1	CC(O)Cc1cc(NC(=O)c2cc(F)cc(C(F)(F)F)c2)c2c(c1)C(=O)NC2c1cc(F)ccc1Cl (racemic) [Compound I-665]
10 to 100	[2H][C@]1(c2cc(F)ccc2Cl)NC(=O)c2cccc(NC(=O)N3C[C@](O)(C(F)(F)F)c4cc(F)ccc43)c21 (single isomer, unassigned) [Compound I-2684]
≤ 0.1	O=C(Nc1cc(N2CCCc3ncccc32)cc2c1C(c1cc(F)ccc1Cl)NC2=O)c1cc(F)cc(C(F)(F)F)c1 (centres unmarked) [Compound I-1227]
10 to 100	O=C(Nc1cccc2c1C(C1CCCC(O)C1)NC2=O)c1cc(F)cc(C(F)(F)F)c1 (mixture of isomers) [Compound I-2226]
1 to 10	Cc1cc(Cl)ccc1C1NC(=O)c2cccc(NC(=O)c3nsc4ccccc34)c21 (centres unmarked) [Compound I-133]
1 to 10	O=C(Nc1cc(OC2CS(=O)(=O)C2)cc2c1C(c1cc(F)ccc1Cl)NC2=O)c1cc(F)cc(C(F)(F)F)c1 (centres unmarked) [Compound I-1149]
10 to 100	O=C1NC(c2cc(F)ccc2Cl)c2c(NC(=O)N3CCOCC3)cc(Br)cc21 (centres unmarked) [Compound I-576]
≤ 0.1	O=C(Nc1cc(N2CC3CNCC3C2=O)cc2c1C(c1cc(F)ccc1Cl)NC2=O)c1cc(F)cc(C(F)(F)F)c1 (centres unmarked) [Compound I-1291]
≤ 0.1	O=C(Nc1cc(-c2cnn3ncnc3c2)cc2c1C(c1cc(F)ccc1Cl)NC2=O)c1cc(F)cc(C(F)(F)F)c1 (centres unmarked) [Compound I-1824]
≤ 0.1	O=C(Nc1cc(-c2ccc3nccn3n2)cc2c1[C@H](c1cc(F)ccc1Cl)NC2=O)c1cc(F)cc(C(F)(F)F)c1 [Compound I-1332]
0.1 to 0.5	O=C(Nc1cc(-c2ccncc2)nc2c1C(c1cc(F)ccc1Cl)NC2=O)c1cc(F)cc(Cl)c1 (centres unmarked) [Compound I-458]
0.1 to 0.5	O=C(Nc1cc(-c2ccccc2C(=O)O)cc2c1C(c1cc(F)ccc1Cl)NC2=O)c1cc(F)cc(C(F)(F)F)c1 (centres unmarked) [Compound I-1216]
1 to 10	O=C(CCc1ccccc1C(F)(F)F)Nc1cc(Br)cc2c1C(c1cc(F)ccc1Cl)NC2=O (centres unmarked) [Compound I-600]
0.5 to 1	O=C1N[C@@H](c2cc(F)ccc2Cl)c2c(NC(=O)N3C[C@@](O)(C(F)(F)F)c4cc(F)ccc43)cc(-n3ncccc3=O)cc21 (single isomer, unassigned) [Compound I-2534]

SMILES	IC50 [µM]
O=C(Nc1cc(-c2ccccc2S(=O)(=O)F)cc2c1C(c1cc(F)ccc1Cl)NC2=O)c1cc(F)cc(C(F)(F)F)c1 (centres unmarked) [Compound I-1264]	≤ 0.1
